The results in this text go back to ChEMBL document CHEMBL5034015, “Structure-Based Optimization of 3-Phenyl-N-(2-(3-phenylureido)ethyl)thiophene-2-sulfonamide Derivatives as Selective Mcl-1 Inhibitors” (J Med Chem, 2021).

The structures appear in SMILES notation. Active and inactive are the calls of the source. No rule for the calls is given here.

Data set [1] concerns the target T1, Bcl-2-like protein 1 (Homo sapiens, UniProt Q07817). The data set is described as follows: Inhibition of biotinylated Bim BH3 peptide binding to GST-tagged human Bcl-xl expressed in Escherichia coli BL21 (DE3) incubated for 1 hr by ELISA.
Data set [2] has as its target T1, Bcl-2-like protein 1. Description: Binding affinity to full length human Bcl-xl expressed in Escherichia coli BL21 (DE3) at 100 uM preincubated for 30 mins followed by 5-FAM-QEDIIIINIARHLAQVGDSMD-RSIPPG tracer addition and measured after 20 mins by fluorescence polarization assay relative to control. Conditions: time 50.0 min.
Data set [3] concerns HeLa. Description: Cytotoxicity against human HeLa cells assessed as cell viability at 20 uM incubated for 48 hrs by CCK8 assay relative to control. It counts as functional. Conditions: read-out: Activity.
Data set [4] concerns the target T2, Apoptosis regulator Bcl-2 (Homo sapiens, UniProt P10415). Description: Binding affinity to full length human Bcl-2 expressed in Escherichia coli BL21 (DE3) at 100 uM preincubated for 30 mins followed by 5-FAM-QEDIIIINIARHLAQVGDSMD-RSIPPG tracer addition and measured after 20 mins by fluorescence polarization assay relative to control. Conditions: time 50.0 min.

Data set [5] concerns the target Induced myeloid leukemia cell differentiation protein Mcl-1 (Homo sapiens, UniProt Q07820). Description: Binding affinity to full length human MCL1 expressed in Escherichia coli BL21 (DE3) at 100 uM preincubated for 30 mins followed by 5-FAM-QEDIIIINIARHLAQVGDSMD-RSIPPG tracer addition and measured after 20 mins by fluorescence polarization assay relative to control. Conditions: time 50.0 min.

The test system of data set [6] is RS4-11. The data set is described as follows: Cytotoxicity against human RS4-11 cells assessed as cell viability at 20 uM incubated for 48 hrs by CCK8 assay relative to control. It counts as functional. Conditions: read-out: Activity.
Data set [7] in a line: Cytotoxicity against HEK293T cells assessed as cell viability at 20 uM incubated for 48 hrs by CCK8 assay relative to control. It counts as cell-based, HEK-293T. Conditions: human, read-out: Activity.
For data set [8], the system named is HL-60. Description: Cytotoxicity against human HL-60 cells assessed as cell viability at 20 uM incubated for 48 hrs by CCK8 assay relative to control. It counts as functional. Conditions: read-out: Activity.
The test system of data set [9] is RS4-11. The data set is described as follows: Induction of apoptosis in human RS4-11 cells assessed as late apoptotic cells at 20 uM measured after 24 hrs by Annexin V/7-AAD and MitoSense Red staining based flow cytometry analysis relative to control (reference value: 0.99 %). It counts as functional.
Data set [10] concerns RS4-11. Description: Induction of apoptosis in human RS4-11 cells assessed as increase in cleaved PARP expression incubated for 48 hrs by western blot analysis. It counts as functional, cell-based.
The subject of data set [11] is RS4-11. Description: Induction of apoptosis in human RS4-11 cells assessed as increase in cleaved caspase 3 expression incubated for 48 hrs by western blot analysis. It counts as functional, cell-based.
The target of data set [12] is T1, Bcl-2-like protein 1. The data set is described as follows: Binding affinity to full length human Bcl-xl expressed in Escherichia coli BL21 (DE3) at up to 100 uM preincubated for 30 mins followed by 5-FAM-QEDIIIINIARHLAQVGDSMD-RSIPPG tracer addition and measured after 20 mins by fluorescence polarization assay. Conditions: dose microM <=100, time 50.0 min.
For data set [13], the system named is RS4-11. Description: Induction of apoptosis in human RS4-11 cells assessed as viable cells at 20 uM measured after 24 hrs by Annexin V/7-AAD and MitoSense Red staining based flow cytometry analysis relative to control (reference value: 94.15 %). It counts as functional. Conditions: read-out: Activity.
The subject of data set [14] is MCF7. The data set is described as follows: Inhibition of Bcl-2/Bim interaction in human MCF7 cells assessed as disruption of Bcl-2/Bim complex at 10 uM measured after 24 hrs by co-immunoprecipitation based western blot analysis relative to control. It counts as cell-based.
Data set [15] has as its system RS4-11. The data set is described as follows: Induction of apoptosis in human RS4-11 cells assessed as necrotic cells at 20 uM measured after 24 hrs by Annexin V/7-AAD and MitoSense Red staining based flow cytometry analysis relative to control (reference value: 1.11 %). It counts as functional.
Data set [16] relates to HL-60. The data set is described as follows: cells. Conditions: Homo sapiens, HL-60, 48 h.
Description: Cytotoxicity against human HL-60 cells assessed as inhibition of cell growth incubated for 48 hrs by CCK8 assay
Data set [17] concerns HeLa. The data set is described as follows: cells. Conditions: Homo sapiens, 48 h.
Description: Cytotoxicity against human HeLa cells assessed as inhibition of cell growth incubated for 48 hrs by CCK8 assay
The test system of data set [18] is RS4-11. The data set is described as follows: Induction of apoptosis in human RS4-11 cells assessed as increase in cleaved caspase 9 expression incubated for 48 hrs by western blot analysis. It counts as functional, cell-based.
Data set [19] relates to RS4-11. The data set is described as follows: Induction of apoptosis in human RS4-11 cells assessed as early apoptotic cells at 20 uM measured after 24 hrs by Annexin V/7-AAD and MitoSense Red staining based flow cytometry analysis relative to control (reference value: 3.75 %). It counts as functional.
Data set [20] deals with T2, Apoptosis regulator Bcl-2. Description: Binding affinity to full length human Bcl-2 expressed in Escherichia coli BL21 (DE3) at up to 100 uM preincubated for 30 mins followed by 5-FAM-QEDIIIINIARHLAQVGDSMD-RSIPPG tracer addition and measured after 20 mins by fluorescence polarization assay. Conditions: dose microM <=100, time 50.0 min.
Data set [21] concerns HEK-293T. The data set is described as follows: Cytotoxicity against HEK293T cells assessed as reduction in cell viability incubated for 48 hrs by CCK8 assay. Conditions: Homo sapiens.
Data set [22] has as its system RS4-11. The data set is described as follows: cells. Conditions: Homo sapiens, RS4-11, 48 h.
Description: Cytotoxicity against human RS4-11 cells assessed as inhibition of cell growth incubated for 48 hrs by CCK8 assay

T1 sequence (Q07817 whole entry): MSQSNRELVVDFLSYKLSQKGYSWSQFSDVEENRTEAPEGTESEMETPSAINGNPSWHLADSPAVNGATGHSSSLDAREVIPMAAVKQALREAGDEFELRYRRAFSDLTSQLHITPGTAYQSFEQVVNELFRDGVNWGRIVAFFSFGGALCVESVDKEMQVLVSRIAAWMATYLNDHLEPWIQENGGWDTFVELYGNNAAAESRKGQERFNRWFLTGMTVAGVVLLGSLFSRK
T2 sequence (P10415 whole entry): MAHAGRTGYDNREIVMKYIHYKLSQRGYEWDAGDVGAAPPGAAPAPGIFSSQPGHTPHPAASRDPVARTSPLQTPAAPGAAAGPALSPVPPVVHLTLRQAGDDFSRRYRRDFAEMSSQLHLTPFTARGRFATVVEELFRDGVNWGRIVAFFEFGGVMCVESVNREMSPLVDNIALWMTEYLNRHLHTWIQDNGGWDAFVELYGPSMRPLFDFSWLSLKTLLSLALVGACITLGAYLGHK
Induced myeloid leukemia cell differentiation protein Mcl-1, sequence (Q07820 whole entry): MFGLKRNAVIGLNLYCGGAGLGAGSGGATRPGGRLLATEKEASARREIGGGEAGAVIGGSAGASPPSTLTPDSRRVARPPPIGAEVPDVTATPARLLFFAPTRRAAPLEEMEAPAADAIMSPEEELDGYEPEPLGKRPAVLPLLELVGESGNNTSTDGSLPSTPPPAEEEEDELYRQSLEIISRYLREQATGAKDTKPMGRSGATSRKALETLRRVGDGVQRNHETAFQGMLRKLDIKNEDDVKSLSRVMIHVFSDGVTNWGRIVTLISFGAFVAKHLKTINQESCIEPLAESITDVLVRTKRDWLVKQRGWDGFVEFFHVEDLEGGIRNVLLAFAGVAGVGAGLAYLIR

For the compound `O=C(c1ccccc1O)c1[nH]c(Cl)c(Cl)c1-n1c(C(=O)c2ccccc2O)cc(Cl)c1Cl`, the IC50 in [1] was more than 80 µM.
For `O=C(Nc1cc(C(F)(F)F)cc(C(F)(F)F)c1)N1CCN(S(=O)(=O)c2sccc2-c2ccccc2Oc2ccc(O)c(O)c2)CC1`, the inhibition in data set [2] is -8%; in data set [4], 7%; in data set [5] it was 47%. Moreover, the figures for the viability at 20 µM in data set [3], in [6] and in [8] were 20%, 10% and 15%, respectively. Besides, the viability at 48 h, 20 µM in data set [7] came to 29%.
As to `COc1ccc(Oc2ccccc2-c2ccsc2S(=O)(=O)NCCNC(=S)Nc2cc(C(F)(F)F)cc(C(F)(F)F)c2)cc1OC`, the Activity in data set [9] is 93.97%; in [10], “Dose-Dependent Effect”; in data set [11], “Dose-Dependent Effect”; in data set [15] it was 0.26%; in data set [18], “Dose-Dependent Effect”; in [19], 3.1%. The result in [12] and in data set [20] was inactive. Further, the viability at 20 µM in data set [13] was determined as 2.6%. The inhibition in [14] turned out to be 20%. In addition, the IC50 in data set [16] was found to be 2.8 µM; in [17], 6.4 µM; in data set [21], 6.8 µM; in data set [22] it was 3.3 µM.
